Data from patent US20240018133A1, “MODULATORS OF THE INTEGRATED STRESS PATHWAY” (Calico Life Sciences LLC, priority 2019, published 2024).

system: ATF4 luciferase reporter (human full-length ATF4 5'-UTR fused to firefly luciferase) in HEK293T cells; assay: ATF4-Luc assay (in vitro model of VWMD): HEK293T cells carrying ATF4 luciferase reporter, tunicamycin-treated; type: cell-based; details: Homo sapiens, HEK-293T, 1 μg/mL tunicamycin, 7 hours, One Glo luminescence
Description: In order to test exemplary compounds of the invention in a cellular context, a stable VWMD cell line was first constructed. The ATF4 reporter was prepared by fusing the human full-length ATF4 5′-UTR (NCBI Accession No. BC022088.2) in front of the firefly luciferase (FLuc) coding sequence lacking the initiator methionine as described in Sidrauski et al (eLife 2013). The construct was used to produce recombinant retroviruses using standard methods and the resulting viral supernatant was used to transduce HEK293T cells, which were then subsequently selected with puromycin to generate a stable cell line.
HEK293T cells carrying the ATF4 luciferase reporter were plated on polylysine coated 384-well plates (Greiner Bio-one) at 30,000 cells per well. Cells were treated the next day with 1 μg/mL tunicamycin and 200 nM of a compound of Formula (I) for 7 hours. Luminescence was measured using One Glo (Promega) as specified by the manufacturer. Cells were maintained in DMEM with L-glutamine supplemented with 10% heat-inactivated FBS (Gibco) and Antibiotic-Antimycotic solution (Gibco).
Table 2 below summarizes the EC50 data obtained using the ATF4-Luc assay for exemplary compounds of the invention.

First: Cc1ncc(C(=O)NC23CC(NC(=O)[C@H]4C[C@@H](O)c5cc(Cl)ccc5O4)(C2)C3)s1 [Compound 385, N-(3-{[(2R,4R)-6-chloro-4-hydroxy-3,4-dihydro-2H-1-benzopyran-2-carbonyl]amino}bicyclo[1.1.1]pentan-1-yl)-2-methyl-1,3-thiazole-5-carboxamide]
Second: O=C(COc1ccc(Cl)c(F)c1)NC12CC(NC(=O)C3CC(O)c4cc(F)ccc4O3)(C1)C2 (centres unmarked) [Compound 300, N-{3-[2-(4-chloro-3-fluorophenoxy)acetamido]bicyclo[1.1.1]pentan-1-yl}-6-fluoro-4-hydroxy-3,4-dihydro-2H-1-benzopyran-2-carboxamide]
The EC50 of the first is higher: 50 to 250 nM for the first, under 10 nM for the second. The second is the more potent here.

Compared with `O=C(COc1ccc(Cl)c(F)c1)NC12CC(NC(=O)[C@@H]3C[C@H](O)c4ccccc4O3)(C1)C2` [Compound 270, (2S,4S)—N-{3-[2-(4-chloro-3-fluorophenoxy)acetamido]bicyclo[1.1.1]pentan-1-yl}-4-hydroxy-3,4-dihydro-2H-1-benzopyran-2-carboxamide], `O=C(COc1ccc(Cl)c(F)c1)NC12CC(NC(=O)C3CC(O)c4ccc(Cl)cc4O3)(C1)C2` (centres unmarked) [Compound 247, 7-chloro-N-{3-[2-(4-chloro-3-fluorophenoxy)acetamido]bicyclo[1.1.1]pentan-1-yl}-4-hydroxy-3,4-dihydro-2H-1-benzopyran-2-carboxamide] is lower in EC50: 50 to 250 nM for the first, under 10 nM for the second.

First: CS(=O)(=O)N[C@@H]1C[C@@H](C(=O)NC23CC(NC(=O)COc4ccc(Cl)c(F)c4)(C2)C3)Oc2ccc(Cl)cc21 [Compound 245, (2S,4R)-6-chloro-N-{3-[2-(4-chloro-3-fluorophenoxy)acetamido]bicyclo[1.1.1]pentan-1-yl}-4-[(methanesulfonyl)amino]-3,4-dihydro-2H-1-benzopyran-2-carboxamide]
Second: CC(=O)NC1CC(C(=O)NC23CC(NC(=O)COc4ccc(Cl)c(F)c4)(C2)C3)Oc2ccc(Cl)cc21 (centres unmarked) [Compound 220, 4-acetamido-6-chloro-N-{3-[2-(4-chloro-3-fluorophenoxy)acetamido]bicyclo[1.1.1]pentan-1-yl}-3,4-dihydro-2H-1-benzopyran-2-carboxamide]
The EC50 of the first is lower: under 10 nM for the first, 10 to 50 nM for the second.

Compared with `O=C(COc1ccc(Cl)c(F)c1)NC12CC(NC(=O)c3cc(=O)c4ccc5c(c4o3)OCO5)(C1)C2` [Compound 291, N-{3-[2-(4-chloro-3-fluorophenoxy)acetamido]bicyclo[1.1.1]pentan-1-yl}-6-oxo-2H,6H-[1,3]dioxolo[4,5-h][1]benzopyran-8-carboxamide], `COc1cc2oc(C(=O)NC34CC(NC(=O)COc5ccc(Cl)c(F)c5)(C3)C4)cc(=O)c2cc1OC` [Compound 221, N-{3-[2-(4-chloro-3-fluorophenoxy)acetamido]bicyclo[1.1.1]pentan-1-yl}-6,7-dimethoxy-4-oxo-4H-1-benzopyran-2-carboxamide] is higher in EC50: 50 to 250 nM for the first, over 2000 nM for the second.

`O=C(COc1ccc(Cl)c(F)c1)NC12CC(NC(=O)[C@@H]3C[C@H](O)c4cc(Cl)c(F)cc4O3)(C1)C2` (single isomer, unassigned) [Compound 265] and `O=C(COc1ccc(Cl)c(F)c1)NC12CC(NC(=O)[C@H]3C[C@H](O)c4cc(Cl)c(F)cc4O3)(C1)C2` [Compound 367, (2R,4S)-6-chloro-N-{3-[2-(4-chloro-3-fluorophenoxy)acetamido]bicyclo[1.1.1]pentan-1-yl}-7-fluoro-4-hydroxy-3,4-dihydro-2H-1-benzopyran-2-carboxamide] cannot be ordered by EC50: under 10 nM for the first, under 10 nM for the second.

`O=C(COc1ccc(Cl)c(F)c1)N[C@@H]1C[C@@H]2O[C@H]1C[C@H]2NC(=O)[C@@H]1C[C@H](O)c2cc(Cl)ccc2O1` (racemic) [Compound 372, (2S,4S)-6-chloro-N-{(1RS,2SR,4RS,5SR)-5-[2-(4-chloro-3-fluorophenoxy)acetamido]-7-oxabicyclo[2.2.1]heptan-2-yl}-4-hydroxy-3,4-dihydro-2H-1-benzopyran-2-carboxamide] and `O=C(COc1ccc(Cl)c(F)c1)N[C@@H]1C[C@@H]2O[C@H]1C[C@H]2NC(=O)[C@@H]1C[C@@H](O)c2cc(Cl)ccc2O1` (racemic) [Compound 369, (2S,4R)-6-chloro-N-{(1RS,2SR,4RS,5SR)-5-[2-(4-chloro-3-fluorophenoxy)acetamido]-7-oxabicyclo[2.2.1]heptan-2-yl}-4-hydroxy-3,4-dihydro-2H-1-benzopyran-2-carboxamide] fall in the same range of EC50: 10 to 50 nM for the first, 10 to 50 nM for the second.

First: O=C(NC12CCC(NC(=O)[C@H]3C[C@@H](O)c4cc(Cl)ccc4O3)(CC1)[C@@H](O)C2)c1cc(C(F)F)no1 (single isomer, unassigned) [Compound 215]
Second: O=C(NC12CCC(NC(=O)[C@H]3C[C@@H](O)c4cc(Cl)ccc4O3)(CC1)CC2)c1cnc(C(F)F)cn1 (racemic) [Compound 302, N-(4-{[rac-(2R,4R)-6-chloro-4-hydroxy-3,4-dihydro-2H-1-benzopyran-2-carbonyl]amino}bicyclo[2.2.2]octan-1-yl)-5-(difluoromethyl)pyrazine-2-carboxamide]
The EC50 of the first is lower: 10 to 50 nM for the first, 50 to 250 nM for the second.

`O=C(COc1ccc(Cl)c(F)c1)NC12CC(NC(=O)C3CNc4cc(Cl)ccc4O3)(C1)C2` (centres unmarked) [Compound 113, 6-chloro-N-{3-[2-(4-chloro-3-fluorophenoxy)acetamido]bicyclo[1.1.1]pentan-1-yl}-3,4-dihydro-2H-1,4-benzoxazine-2-carboxamide] and `CCC1(O)CC(C(=O)NC23CC(NC(=O)COc4ccc(Cl)c(F)c4)(C2)C3)Oc2ccc(Cl)cc21` (centres unmarked) [Compound 297, 6-chloro-N-{3-[2-(4-chloro-3-fluorophenoxy)acetamido]bicyclo[1.1.1]pentan-1-yl}-4-ethyl-4-hydroxy-3,4-dihydro-2H-1-benzopyran-2-carboxamide] cannot be ordered by EC50: under 10 nM for the first, under 10 nM for the second.

`O=C(COc1ccc(Cl)c(F)c1)NC12CCC(NC(=O)C3CC(=O)c4cc(Cl)ccc4O3)(CC1)NC2=O` (centres unmarked) [Compound 363, 6-chloro-N-{4-[2-(4-chloro-3-fluorophenoxy)acetamido]-3-oxo-2-azabicyclo[2.2.2]octan-1-yl}-4-oxo-3,4-dihydro-2H-1-benzopyran-2-carboxamide] and `O=C(COc1ccc(Cl)c(F)c1)NC12CCC(NC(=O)C3CC(=O)c4cc(Cl)ccc4O3)(CC1)CC2` (centres unmarked) [Compound 326, 6-chloro-N-{4-[2-(4-chloro-3-fluorophenoxy)acetamido]bicyclo[2.2.2]octan-1-yl}-4-oxo-3,4-dihydro-2H-1-benzopyran-2-carboxamide] fall in the same range of EC50: 10 to 50 nM for the first, 10 to 50 nM for the second.

First: O=C(COc1ccc(Cl)c(F)c1)NC12CC(NC(=O)C3(F)CC(O)c4cc(Cl)ccc4O3)(C1)C2 (centres unmarked) [Compound 350, 6-chloro-N-{3-[2-(4-chloro-3-fluorophenoxy)acetamido]bicyclo[1.1.1]pentan-1-yl}-2-fluoro-4-hydroxy-3,4-dihydro-2H-1-benzopyran-2-carboxamide]
Second: C[C@@]1(C(=O)NC23CC(NC(=O)COc4ccc(Cl)c(F)c4)(C2)C3)Oc2ccc(Cl)cc2C1O (stereo partly drawn) [Compound 263, (2R)-5-chloro-N-{3-[2-(4-chloro-3-fluorophenoxy)acetamido]bicyclo[1.1.1]pentan-1-yl}-3-hydroxy-2-methyl-2,3-dihydro-1-benzofuran-2-carboxamide]
The EC50 of the first is lower: under 10 nM for the first, over 2000 nM for the second.

First: COC(C)(C)CN1C[C@@H](C(=O)NC23CC(NC(=O)COc4ccc(Cl)c(F)c4)(C2)C3)Oc2ccc(Cl)cc21 [Compound 191, (2S)-6-chloro-N-{3-[2-(4-chloro-3-fluorophenoxy)acetamido]bicyclo[1.1.1]pentan-1-yl}-4-(2-methoxy-2-methylpropyl)-3,4-dihydro-2H-1,4-benzoxazine-2-carboxamide]
Second: O=C(COc1ccc(Cl)c(F)c1)NC12CC(NC(=O)[C@@H]3C[C@H](NCC(F)(F)F)c4cc(Cl)ccc4O3)(C1)C2 [Compound 319, (2S,4S)-6-chloro-N-{3-[2-(4-chloro-3-fluorophenoxy)acetamido]bicyclo[1.1.1]pentan-1-yl}-4-[(2,2,2-trifluoroethyl)amino]-3,4-dihydro-2H-1-benzopyran-2-carboxamide]
The EC50 of the first is higher: 500 to 2000 nM for the first, 50 to 250 nM for the second.

Compared with `O=C(COc1ccc(Cl)c(F)c1)NC12CC(NC(=O)C3COc4cc(Cl)ccc4C3)(C1)C2` (centres unmarked) [Compound 345, 7-chloro-N-{3-[2-(4-chloro-3-fluorophenoxy)acetamido]bicyclo[1.1.1]pentan-1-yl}-3,4-dihydro-2H-1-benzopyran-3-carboxamide], `O=C(COc1ccc(Cl)c(F)c1)NC12CC(NC(=O)[C@H]3C[C@H](NCCO)c4cc(Cl)ccc4O3)(C1)C2` (racemic) [Compound 301, rac-(2R,4S)-6-chloro-N-{3-[2-(4-chloro-3-fluorophenoxy)acetamido]bicyclo[1.1.1]pentan-1-yl}-4-[(2-hydroxyethyl)amino]-3,4-dihydro-2H-1-benzopyran-2-carboxamide] is lower in EC50: over 2000 nM for the first, under 10 nM for the second.

`O=C(COc1ccc(Cl)c(Cl)c1)NC12CC(NC(=O)[C@H]3C[C@@H](O)c4cc(F)c(F)cc4O3)(C1)C2` [Compound 207, (2R,4R)—N-{3-[2-(3,4-dichlorophenoxy)acetamido]bicyclo[1.1.1]pentan-1-yl}-6,7-difluoro-4-hydroxy-3,4-dihydro-2H-1-benzopyran-2-carboxamide] and `Cc1cc2c(cc1F)[C@@H](O)C[C@@H](C(=O)NC13CC(NC(=O)COc4ccc(Cl)c(F)c4)(C1)C3)O2` [Compound 242, (2S,4S)—N-{3-[2-(4-chloro-3-fluorophenoxy)acetamido]bicyclo[1.1.1]pentan-1-yl}-6-fluoro-4-hydroxy-7-methyl-3,4-dihydro-2H-1-benzopyran-2-carboxamide] cannot be ordered by EC50: under 10 nM for the first, under 10 nM for the second.
